The values that follow are results of earlier work, collected in US20240315972A1, “PROTEIN CONTAINING BIO-ACTIVE COMPOSITIONS COMPRISING CELLULOSE MICROPARTICLE CARRIERS” (priority 2021, published 2024).

One series concerns large native proteins. The note with it: versus its mesophilic analogue.
Series [1] deals with herpes simplex virus type 1 (HSV-1). The note with it: in vitro.
Series [2] concerns respiratory syncytial virus (RSV). To be noted: in vitro.
Series [3] deals with interferon (IFN) signaling. To be noted: 5 BAEE U/mL (4.5 μg/mL porcine trypsin).

Trypsin: the “Effectiveness in degrading large native proteins relative to mesophilic analogue” value in the series with large native proteins was 3-12 times. The “Efficacy against HSV-1” value in series [1] was “high efficacy”. The “Efficacy against RSV” value in series [2] is “high efficacy”. In addition, the “Effect on interferon (IFN) signaling” value in series [3] is on record as “strongly inhibited”.
